According to PubChem BioAssay AID248 (DTP/NCI, 2004):
Values joined by “and” are separate entries in the source; they are usually repeats but may differ in a detail not shown here. Identical values can stand only once. Toxic doses and inconclusive results are not listed. Rule as the data show it: active = T/C of 150% or more; inactive = T/C below 125%.

System: L1210 leukemia ip in BDF1 mice, survival T/C
Assay: NCI In Vivo Anticancer Drug Screen. Data for tumor model L1210 Leukemia (intraperitoneal) in B6D2F1 (BDF1) mice
Conditions: endpoint: mean survival time, higher = longer survival
Procedure, shortened: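 Value reflects the ratio of survival in compound-treated mice to survival in vehicle-treated controls, with both groups carrying the same transplanted tumor.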

[1] = dose: 100.0 mg/kg/injection, schedule: Q01DX009 (ip), vehicle: Klucel (hydroxypropylcellulose) (HPC)
[2] = dose: 200.0 mg/kg/injection, schedule: Q01DX009 (ip), vehicle: Klucel (hydroxypropylcellulose) (HPC)
[3] = dose: 100.0 mg/kg/injection, schedule: Q01DX001 (ip), vehicle: Klucel (hydroxypropylcellulose) (HPC)
[4] = dose: 200.0 mg/kg/injection, schedule: Q01DX001 (ip), vehicle: Klucel (hydroxypropylcellulose) (HPC)
[5] = dose: 400.0 mg/kg/injection, schedule: Q01DX001 (ip), vehicle: Klucel (hydroxypropylcellulose) (HPC)
[6] = dose: 100.0 mg/kg/injection, schedule: Q04DX003 (ip), vehicle: Klucel (hydroxypropylcellulose) (HPC)
[7] = dose: 200.0 mg/kg/injection, schedule: Q04DX003 (ip), vehicle: Klucel (hydroxypropylcellulose) (HPC)
[8] = dose: 400.0 mg/kg/injection, schedule: Q04DX003 (ip), vehicle: Klucel (hydroxypropylcellulose) (HPC)
[9] = dose: 100.0 mg/kg/injection, schedule: Q04DX002 (ip), vehicle: Klucel (hydroxypropylcellulose) (HPC)
[10] = dose: 200.0 mg/kg/injection, schedule: Q04DX002 (ip), vehicle: Klucel (hydroxypropylcellulose) (HPC)
[11] = dose: 400.0 mg/kg/injection, schedule: Q04DX002 (ip), vehicle: Klucel (hydroxypropylcellulose) (HPC)
[12] = dose: 400.0 mg/kg/injection, schedule: Q01DX009 (ip), vehicle: Klucel (hydroxypropylcellulose) (HPC)

Measured: T/C

N=C(N)C(N)=NCC(Br)CBr (configuration not stated)
inactive: dose: 100.0 mg/kg/injection, schedule: Q04DX002 (ip), vehicle: saline 93 % of control | dose: 200.0 mg/kg/injection, schedule: Q04DX002 (ip), vehicle: saline 108 % of control

CSc1nc(C)c(Cl)c(SC)n1
inactive: dose: 50.0 mg/kg/injection, schedule: Q01DX009 (ip), vehicle: Klucel (hydroxypropylcellulose) (HPC) 101 % of control | [1] 117 % of control | [2] 97 % of control

Brc1ccc(Br)c(-c2nnc(-c3cccc4ccccc34)o2)c1
inactive: dose: 100.0 mg/kg/injection, schedule: Q01DX001 (ip), vehicle: saline 86 % of control

ICc1ccnc2ccccc12
inactive: dose: 100.0 mg/kg/injection, schedule: Q01DX001 (ip), vehicle: other 100 % of control | dose: 200.0 mg/kg/injection, schedule: Q01DX001 (ip), vehicle: other 103 % of control | dose: 400.0 mg/kg/injection, schedule: Q01DX001 (ip), vehicle: other 100 % of control

O=C(C1=CCCC1)C1=CCCC1
inactive: dose: 50.0 mg/kg/injection, schedule: Q01DX001 (ip), vehicle: saline with Tween-80 99 % of control | dose: 100.0 mg/kg/injection, schedule: Q01DX001 (ip), vehicle: saline with Tween-80 105 % of control | dose: 200.0 mg/kg/injection, schedule: Q01DX001 (ip), vehicle: saline with Tween-80 99 % of control

Cc1cc(C)cc(OC(=S)N(C)C)c1
inactive: [3] 93 % of control | [4] 98 % of control | [5] 95 % of control

CCCCCC1CCC(OC(C)=O)CC1 (configuration not stated)
inactive: [3] 99 % of control | [6] 101 % of control | [4] 96 % of control | [7] 95 % of control | [5] 96 % of control | [8] 93 % of control

FN1C(F)(F)C(F)(F)C(F)(F)C(F)(F)C1(F)F
inactive: dose: 100.0 mg/kg/injection, schedule: Q01DX001 (ip), vehicle: acetone 100 % of control | dose: 200.0 mg/kg/injection, schedule: Q01DX001 (ip), vehicle: acetone 87 % of control | dose: 400.0 mg/kg/injection, schedule: Q01DX001 (ip), vehicle: acetone 92 % of control

CC(=O)C12OC1CC1C3CCC4=CC(=O)CCC4(C)C3CC(=O)C12C (configuration not stated)
inactive: dose: 75.0 mg/kg/injection, schedule: Q01DX009 (ip), vehicle: carboxymethylcellulose (CMC) 94 % of control | dose: 150.0 mg/kg/injection, schedule: Q01DX009 (ip), vehicle: carboxymethylcellulose (CMC) 107 % of control | dose: 300.0 mg/kg/injection, schedule: Q01DX009 (ip), vehicle: carboxymethylcellulose (CMC) 105 % of control

CN(C)CCOC(=O)c1cccc(CCl)c1CCl
inactive: dose: 87.5 mg/kg/injection, schedule: Q01DX009 (ip), vehicle: saline 106 % of control

CCCCc1c(C)nc(N)[nH]c1=O
inactive: [9] 104 % of control | [10] 100 % of control | [11] 100 % of control

Cc1cc(NC(=O)Nc2cc([N+](=O)[O-])ccc2Cl)no1
inactive: [3] 89 % of control | [1] 96 % of control and 98 % of control | [9] 104 % of control and 91 % of control | [6] 96 % of control | [2] 106 % of control and 90 % of control | [10] 95 % of control and 98 % of control | [7] 97 % of control | [12] 98 % of control | [11] 95 % of control and 106 % of control | [8] 97 % of control

CCCCCS(=O)(=O)N1CCCCC1
inactive: dose: 100.0 mg/kg/injection, schedule: Q04DX002 (ip), vehicle: other 103 % of control | dose: 200.0 mg/kg/injection, schedule: Q04DX002 (ip), vehicle: other 92 % of control | dose: 400.0 mg/kg/injection, schedule: Q04DX002 (ip), vehicle: other 107 % of control

CCOc1ccc(NC(=O)Nc2cccc3ccccc23)cc1
inactive: [1] 98 % of control | [6] 86 % of control | [2] 94 % of control | [12] 86 % of control | [8] 92 % of control

CCCCCCCCCCCC[N+](C)(C)C (tested in a mixture with another compound)
inactive: dose: 1.25 mg/kg/injection, schedule: Q01DX015 (ip), vehicle: saline 101 % of control | dose: 2.5 mg/kg/injection, schedule: Q01DX015 (ip), vehicle: saline 95 % of control | dose: 3.12 mg/kg/injection, schedule: Q01DX009 (ip), vehicle: saline 92 % of control | dose: 3.12 mg/kg/injection, schedule: Q04DX003 (ip), vehicle: saline 98 % of control | dose: 5.0 mg/kg/injection, schedule: Q01DX015 (ip), vehicle: saline 101 % of control | dose: 5.0 mg/kg/injection, schedule: Q04DX003 (ip), vehicle: saline 107 % of control | dose: 6.25 mg/kg/injection, schedule: Q01DX009 (ip), vehicle: saline 94 % of control | dose: 6.25 mg/kg/injection, schedule: Q04DX003 (ip), vehicle: saline 98 % of control | dose: 10.0 mg/kg/injection, schedule: Q01DX015 (ip), vehicle: saline 98 % of control | dose: 10.0 mg/kg/injection, schedule: Q04DX003 (ip), vehicle: saline 112 % of control | dose: 12.5 mg/kg/injection, schedule: Q01DX009 (ip), vehicle: saline 105 % of control | dose: 12.5 mg/kg/injection, schedule: Q04DX003 (ip), vehicle: saline 95 % of control | dose: 18.0 mg/kg/injection, schedule: Q01DX009 (ip), vehicle: saline 90 % of control | dose: 20.0 mg/kg/injection, schedule: Q01DX015 (ip), vehicle: saline 98 % of control | dose: 20.0 mg/kg/injection, schedule: Q04DX003 (ip), vehicle: saline 93 % of control | dose: 37.5 mg/kg/injection, schedule: Q01DX001 (ip), vehicle: saline 101 % of control | dose: 40.0 mg/kg/injection, schedule: Q01DX015 (ip), vehicle: saline 100 % of control | dose: 40.0 mg/kg/injection, schedule: Q04DX003 (ip), vehicle: Klucel (hydroxypropylcellulose) (HPC) 90 % of control

CN=C(NC)c1ccc(NC(=O)/C=C/C(=O)Nc2ccc(C(=NC)NC)cc2)cc1
inactive: dose: 12.5 mg/kg/injection, schedule: Q01DX Z (ip), vehicle: carboxymethylcellulose (CMC) 97 % of control | dose: 25.0 mg/kg/injection, schedule: Q01DX Z (ip), vehicle: carboxymethylcellulose (CMC) 91 % of control | dose: 50.0 mg/kg/injection, schedule: Q01DX Z (ip), vehicle: carboxymethylcellulose (CMC) 99 % of control

COC1OC(COC(=O)c2ccc([N+](=O)[O-])cc2)C(OC(=O)c2ccc([N+](=O)[O-])cc2)C1OCc1ccccc1 (configuration not stated)
inactive: dose: 75.0 mg/kg/injection, schedule: Q01DX001 (ip), vehicle: other 86 % of control | dose: 150.0 mg/kg/injection, schedule: Q01DX001 (ip), vehicle: other 86 % of control | dose: 300.0 mg/kg/injection, schedule: Q01DX001 (ip), vehicle: other 86 % of control and 89 % of control

NC(N)=Nc1ccc(C(=O)Oc2ccc([N+](=O)[O-])cc2)cc1
inactive: dose: 100.0 mg/kg/injection, schedule: Q04DX003 (ip), vehicle: saline with Tween-80 108 % of control | dose: 200.0 mg/kg/injection, schedule: Q04DX003 (ip), vehicle: saline with Tween-80 94 % of control | dose: 400.0 mg/kg/injection, schedule: Q04DX003 (ip), vehicle: saline with Tween-80 89 % of control

C/C=C/COc1cc[n+]([O-])cc1
inactive: dose: 100.0 mg/kg/injection, schedule: Q04DX003 (ip), vehicle: saline 102 % of control | dose: 200.0 mg/kg/injection, schedule: Q04DX003 (ip), vehicle: saline 107 % of control

CCC(C)C(NC(C)=O)C(=O)O (configuration not stated)
inactive: dose: 100.0 mg/kg/injection, schedule: Q04DX002 (ip), vehicle: saline with Tween-80 102 % of control | [6] 88 % of control | dose: 200.0 mg/kg/injection, schedule: Q04DX002 (ip), vehicle: saline with Tween-80 94 % of control | [7] 91 % of control | dose: 400.0 mg/kg/injection, schedule: Q04DX002 (ip), vehicle: saline with Tween-80 102 % of control | [8] 89 % of control

CCN(CC)CCOC(=O)CSC1C2CC3C(C2)C31 (configuration not stated)
inactive: dose: 50.0 mg/kg/injection, schedule: Q01DX009 (ip), vehicle: saline 94 % of control | dose: 100.0 mg/kg/injection, schedule: Q01DX009 (ip), vehicle: saline 90 % of control | dose: 200.0 mg/kg/injection, schedule: Q01DX009 (ip), vehicle: saline 123 % of control
